Laboratory results taken from patent publication US11306306B1, “Selective degradation of proteins” (SyntheX, Inc., priority 2019, dated 2022).

Columns and labels:
[1] = system: TIR1 bridged to plant protein (AXR) fused to a TetR DBD and an AD; experiment: Positive readout high throughput screen for bridging agents, death agent, 96 well plate growth (OD600), E3 ligase TIR1; format: cell-based, Saccharomyces cerevisiae; settings: 10 uM, quadruplicate wells, 30° C., final timepoint 48 hrs
Protocol: In another example, cells expressing a heterologous E3 ligase, in this case TIR1, were assayed for survival to discover bridging agents that can bridge TIR1 to the bait and lead to degradation, thereby enabling cell growth (schematic shown in FIG. 10A). The target was a plant protein (AXR) that is ubiquitinated and degraded in response to Indol Acetic Acid fused to a TetR DBD and an AD. Cells containing the E3 ligases and the death agent were mated to cells containing the target. The mated cells were then aliquoted into a 96 well plate at a starting OD600=0.05. In this example, various compounds were used in quadruplicate wells at a concentration of 10 uM, and plated cells starting at OD600=0.05 (with the border wells on each side kept as negative controls). Plates were incubated at 30° C. with shaking and continuously monitored for growth using OD600 in a Cytation 1 instrument.

[2] = system: COI1b bridged to plant protein (AXR) fused to a TetR DBD and an AD; experiment: Positive readout screen for bridging agents, death agent, 96 well plate growth (OD600), E3 ligase COI1b; format: cell-based, S. cerevisiae; settings: duplicate wells, 30° C., final timepoint 84 hrs
Protocol: In yet another example, cells expressing a heterologous E3 ligase, in this case COI1b, were assayed for survival to discover bridging agents that can bridge COI1b to the bait and lead to degradation, thereby enabling cell growth (as shown in FIG. 11A). S. cerevisiae cells were modified to minimize drug efflux by deletion of drug efflux pumps and transcription factors encoding for their expression as previously described (Chinen, 2011). The target used was a plant protein (AXR) that is ubiquitinated and degraded in response to Jasmonate-isoleucine fused to a TetR DBD and an AD. Cells containing the E3 ligases and the death agents were mated to cells containing the target. The mated cells were then aliquoted into a 96 well plate at a starting OD600=0.05. Various compounds were tested in duplicate wells at a concentration gradient down from 100 uM. […] Plates were incubated at 30° C. with shaking and continuously monitored for growth using OD600 in a Cytation 1 instrument.

[3] = system: aggressive adherent cancer cell lines (e.g. HeLa, A431, T47D, MCF7, MDA-MB-231); settings: several aggressive adherent cancer cell lines (e.g. HeLa, A431, T47D, MCF7, MDA-MB-231); cited from earlier work

Molecule: O=C(O)Cc1ccccc1 [PAA]
- cell growth (OD600): bridging TIR1 to the bait, leading to degradation [1]: functional bridging agents

Molecule: CC[C@H]1C=C(C(=O)N[C@@]2(C(=O)O)C[C@@H]2CC)[C@H]2CCC(=O)[C@H]2C1 [coronatine]
- cell growth (OD600): bridging COI1b to the bait, leading to degradation ([2]; 50 uM (wells G8/9)): exhibited cell growth
- cell growth (OD600): bridging COI1b to the bait, leading to degradation ([2]; 75 uM (wells F8/9)): exhibited cell growth
- cell growth (OD600): bridging COI1b to the bait, leading to degradation ([2]; 100 uM (wells E8/9)): exhibited cell growth

Molecule: Gymnopeptide A [GymA]
- IC50 values [3]: low nanomolar range

Molecule: Gymnopeptide B [GymB]
- IC50 values [3]: low nanomolar range
